# Experimental data taken from patent US20200123127A1, “REMOVAL OF SENESCENCE-ASSOCIATED MACROPHAGES” (EVERON BIOSCIENCES, INC., priority 2016, published 2020).
# “Also recorded” adds a separate entry of the source.
# How the values were obtained:
# [1] = test system: B16 melanoma lung metastasis in C57BL/6 mice; assay: Senescence-enhanced B16 lung metastasis model; type: in vivo, mouse
# From the text: FIG. 4. Efficacy of A1.1 analogs in the senescence-enhanced B16 metastasis model. (A) Quantification of metastatic nodules by H&E morphometric analysis, and the resulting reduction in tumor burden (%) compared to vehicle control. (B) Quantitation morphometric analysis of lungs excised from irradiated mice treated with analogs of A1.1 post-inoculation of B16 cell intravenously, along with quantitation of morphometric analysis, are provided. (C) In vitro testing of A1.1 and analogs against the growth and viability of B16 cells, as assessed by the resazurin viability assay after 72 hour exposure to compounds compared to non-treated controls.
# The role of senescent cells in the promotion of metastatic potential of cancer cells has also been described [Patent WO 2013090645 A1; Campisi, J. (2015). Cancer and Aging: Rival Demons]. […] To test the efficacy of A1.1, irradiated (11 Gy followed by bone-marrow transplantation) and non-irradiated C57BL/6 mice received B16 melanoma cells via tail vein injection were subsequently (72 hours later) administered A1.1 (20 mg/kg) intraperitoneally once a day for 5 consecutive days.
# Synthesized analogs were also tested in vivo, to assess whether optimized structures are capable of showing activity against senescence-mediated B16 lung metastasis in irradiated mice (FIG. 4B). Analogs A1.1, A1.12, A1.13, A1.14, A1.15, and A1.6 were administered at 20 mg/kg intraperitoneally for 5 consecutive days. In addition to A1.1, treatment with analogs A1.12, A1.14 and A1.15 at 20 mg/kg reduced the metastatic burden in the lungs of irradiated mice by more than 2-fold.
# SAMs = assay: SAM viability (CyQuant Direct / resazurin); type: cell-based, mouse; conditions: for SAM cell viability: 2.5 to 10 μM
# Method: FIG. 8. Immunomodulatory regulation of p16(Ink4a) and SAβG in macrophages. Peritoneal lavage cells elicited by alginate-encapsulated SCs from p16^Ink4a/Luc mice were treated ex vivo with immunomodulatory agents for up to 72 hours. (A) mRNA expression of p16(Ink4a) and β-galactosidase (Glb1) in macrophages (relative to B2m expression) with or without LPS stimulation for 72 hours analyzed via qRT-PCR, normalized to non-treated controls. (B) Microphotograph of SAβG-stained adherence-selected macrophages with or without stimulation with LPS (1 ng/mL) for 72 hours (10× objective). (C&D) Kinetics of p16(Ink4a) promoter-dependent luciferase activity per cell with or without LPS stimulation (C) or IL-4 stimulation (D), normalized to activity from non-treated cells at time zero. Results are shown as the mean±standard deviation for at least 3 experiments. Statistical significance with respect to non-treated control at time zero is indicated. (E) Luciferase activity and (3-galactosidase activity (via 4-MUG hydrolysis) from proteose peptone-elicited lavage cells following stimulation with IL-4 (20 ng/mL) for 72 hours, normalized to non-treated controls. (F) Viability following 72 hour dose-response to JAK1/2 inhibitor Ruxolitinib in the presence or absence of IL-4 (10 ng/mL) stimulation, measured by CyQuant Direct DNA-based viability assay. Viability normalized to respective controls lacking Ruxolitinib. (G&H) Dose-response of STAT6 inhibitor AS1517499 against luciferase activity (G) and viability via CyQuant Direct assay (H) following 72 hour treatment in the presence and absence of IL-4 (10 ng/mL). Results normalized to respective controls (with or without IL-4) lacking STAT6 inhibitor. Statistical significance is calculated with respect to the difference between IL-4 stimulated and non-stimulated cells at each concentration of STAT6 inhibitor. (I) Relative luciferase activity per cell following repolarization with M1- and M2-inducing agents. Macrophages were left non-treated (NT) or treated with either LPS (1 ng/ml) or IL-4 (20 ng/ml) for 72 hours (days 1-3), as indicated. For each treatment set, samples were collected at 72 hours (no further treatment; days 4-6=x). Alternatively, cells were washed and placed in fresh medium (−), medium containing LPS (1 ng/mL) and IFN-γ (10 ng/mL), or medium containing IL-4 (20 ng/mL) and IL-13 (10 ng/mL) and incubated for an additional 72 hours prior to sample collection (as indicated for days 4-6). Luciferase activity is expressed as the percent activity per cell relative to non-treated (NT) controls after the first 72 hours.
# FIG. 10. Elevated p16(Ink4a) and β-galactosidase is regulated by immunomodulatory agents in macrophages, but not in mesenchymal SCs. Primary cultures of adipose-derived mesenchymal stromal cells (AdMSC) isolated from p16^Ink4a/Luc mice were irradiated (20 Gy) and cultured for 10 days for senescence induction. Mock irradiated cells were used as a proliferating cell control. Response of senescent and proliferating AdMSCs to immunomodulatory agents were compared to that of peritoneal lavage cells elicited by our alginate bead model. A-D) Dose-response curves of LPS (top panels: […]) and Poly(I:C) (bottom panels: C&D) on p16(Ink4a) promoter-dependent luciferase activity (left panels: A&C) and beta-galactosidase activity measured via 4-MUG hydrolysis (right panels: B&D) after 72 hr treatment. […]
# FIG. 13. […] SAM viability was determined using the resazurin cell viability assay (Res). […]
# [2] = test system: p16(Ink4a) expression in macrophages; assay: Immunomodulators in vivo in p16Ink4a/Luc mice bearing alginate-encapsulated cells; set-up: species or system mouse; conditions: for in vivo bioluminescence / elevated p16(Ink4a) expression: after 10 day induction of bioluminescence, Poly(I:C) 2 and 10 mg/kg intraperitoneally
# Method: Mice were injected intraperitoneally with a 200 μl solution of 15 mg/mL D-luciferin potassium salt (Syd Labs; Boston, Mass.) in D-PBS without calcium and magnesium. At 10 minutes post-injection, isoflurane-anesthetized mice were placed into the IVIS Spectrum in vivo bioluminescent imaging system (PerkinElmer; Waltham, Mass.) for detection of luciferase activity (60-second exposure). Bioluminescence in p16^LUC mice was quantified as total flux (p/s) of luminescent signal from the abdomen using via Living Image® software.
# We next investigated whether p16(Ink4a) expression was susceptible to M1-mediated regulation in vivo using immunotherapeutic agent Poly(I:C). Upon intraperitoneal injection of alginate-encapsulated cells, p16^Iak4a/Luc mice accumulate luciferase-positive macrophages that can be monitored in vivo via the IVIS imaging system. […] Further, treatment with Poly(I:C) had no effect on β-galactosidase activity nor viability (>95%) of lavage cells, consistent with in vitro data.
molecule,measurement,setting,value
CCOC(=O)c1sc(SCc2ccccc2)c2c1CC(c1ccc(OC)cc1)C/C2=N\O (stereo not drawn) [Example A1.1],tumor burden in non-irradiated animals,"[1]; 20 mg/kg intraperitoneally, 5 consecutive days, non-irradiated mice",did not affect
"COc1ccc(C2CC(=NO)c3c(SCc4ccccc4)sc(C(=O)NCc4cccc(F)c4)c3C2)cc1 (stereo not drawn) [Example A1.6, 3-(Benzylthio)-N-(3-fluorobenzyl)-4-(hydroxyimino)-6-(4-methoxyphenyl)-4,5,6,7-tetrahydrobenzo[c]thiophene-1-carboxamide]",reduction of B16 metastatic load in the lungs of irradiated mice vs vehicle,"[1]; 20 mg/kg intraperitoneally once a day for 5 consecutive days, irradiated (11 Gy) C57BL/6 mice",did not show a substantial decrease
same,SAM cell viability,"SAMs; resazurin / CyQuant, listed as TA-4812",no effect
same,SAM cell viability,"SAMs; resazurin / CyQuant, listed as TA-04812-1",little to no effect
O=C(NCCCc1cn[nH]c1)c1ccc(-c2ccncc2)c(C#Cc2ccc(F)cc2)c1 [OT-82],toxicity to SAMs in combination with inducers of the M1-phenotype (LPS and interferon-gamma),SAMs; resazurin,toxic
same,"toxicity to SAMs, OT-82 by itself","SAMs; resazurin / CyQuant, 500 nM",low SAM toxicity; also recorded: almost non-toxic; also recorded: not toxic
IFN-α,in vivo bioluminescence / elevated p16(Ink4a) expression,[2],abrogates
Poly(I:C),in vivo bioluminescence / elevated p16(Ink4a) expression,[2],complete abrogation of signal
same,viability of lavage cells,"[2]; mouse, in vivo",> 95%
same,β-galactosidase activity of lavage cells,"[2]; mouse, in vivo",no effect
same,proportion of CD11b+ F4/80+ macrophages,[2]; peritoneal lavage,no difference
same,decrease in luciferase activity per lavage cell vs non-treated controls,[2]; peritoneal lavage cells,> 6 fold
